{"source": "patent US20240270811A1", "about": "“Glycosylated Neuropeptide Derivative, Pharmaceutical Composition, Intranasal/Nasal Drop Formulation, and Use of Pharmaceutical Composition” (Tokyo University of Science Foundation, priority 2021, published 2024)", "assay": "Observation of section of trigeminal lemniscus after intranasal administration", "type": "in vivo", "settings": "3.0 nmol/mouse intranasal, 15 minutes", "method": "Mice were intranasally administered with 16% DMSO or a glycosylated GLP-2 derivative (3.0 nmol/mouse). The brain was isolated 15 minutes after the administration, and was subjected to infiltration fixation with 4% PFA overnight. On the day following the isolation, the brain was substituted with 30% sucrose overnight (4° C.). Thereafter, a frozen section of trigeminal lemniscus with a thickness of 30 μm was prepared using a cryostat (CM3050S; Leica Microsystems, WetZlar, Germany).\nThe frozen section was mounted on a slide glass, and was subjected to blocking for 30 minutes at room temperature with a blocking buffer. Thereafter, the section was added with a first antibody solution including Neuro-Chrom (trade name) Pan Neuronal Marker Antibody-Rabbit, diluted with a blocking buffer (1:500), and subjected to incubation overnight (4° C.). After washing three times with 1×PBS, the section was added with a first antibody solution including a GLP-2 polyclonal antibody diluted with a BSA/PBS solution (1:200), and subjected to incubation for 2 hours at room temperature. After washing three times with 1×PBS, the section was added with a second antibody solution including Alexa Fluor (trademark) 568 Goat Anti-Mouse IgG H&L, diluted 1000 times with a 1% BSA/PBS solution and DAPI ([…]), and subjected to incubation for 1 hour at room temperature. […]", "note": "Where no end group is shown, it is not given here. The star is where a group is joined. X1 = CC(=O)N[C@@H]1[C@@H](O)[C@H](O[C@@H]2O[C@H](CO)[C@@H](O[C@@H]3O[C@H](CO[C@H]4O[C@H](CO)[C@@H](O)[C@H](O)[C@@H]4O[C@@H]4O[C@H](CO)[C@@H](O[C@@H]5O[C@H](CO[C@]6(C(=O)O)C[C@H](O)[C@@H](NC(C)=O)[C@H]([C@H](O)[C@H](O)CO)O6)[C@H](O)[C@H](O)[C@H]5O)[C@H](O)[C@H]4NC(C)=O)[C@@H](O)[C@H](O[C@H]4O[C@H](CO)[C@@H](O)[C@H](O)[C@@H]4O[C@@H]4O[C@H](CO)[C@@H](O[C@@H]5O[C@H](CO[C@]6(C(=O)O)C[C@H](O)[C@@H](NC(C)=O)[C@H]([C@H](O)[C@H](O)CO)O6)[C@H](O)[C@H](O)[C@H]5O)[C@H](O)[C@H]4NC(C)=O)[C@@H]3O)[C@H](O)[C@H]2NC(C)=O)[C@@H](CO)O[C@H]1NC(=O)C*"}
{"substance": "FFLIPKGRRRRRRRRGGHADGSFSDEMNTILDNLAARDFINWLIQTKITDC(X1)-OH [PAS-CPP-GLP-2 (11-sugar)]", "values": [{"measurement": "fluorescence in nerve bundle that constitutes the trigeminal lemniscus", "value": "a large amount of fluorescence for a drug was observed"}]}
